In data set [1] the test system is experimental human pain model, healthy volunteers. The experiment in a line: Pain-related evoked potentials (EEG) after CO2 stimulation of the nasal mucosa, Example 4. The format is in vivo. The method, then:
This was a single site, single dose, double blind, placebo-controlled, 5-treatment, 5-period, randomized, balanced crossover study in healthy adult male and female subjects. […] Subjects were allocated each of the 5 treatments described in the synopsis according to a random allocation schedule (RAS). There was a 7-day washout period
Analgesic effects were assessed by means of an experimental human pain model based on the chemosomatosensory pain-related cortical potentials (CSSEPs) and pain-ratings after specific phasic nociceptive stimulation of the nasal mucosa with gaseous CO2. In addition, intensity estimates of tonic pain produced by stimulation of the nasal mucosa with dry air at controlled flow and temperature were employed.
Within the present pain model, the following were used as indicators of analgesia: • post-treatment decrease in pain-ratings and/or • post-treatment decrease in amplitudes of pain-related evoked potentials and/or • post-treatment increase in latencies of pain-related evoked potentials, relative to the pretreatment values.
1. Base-to-peak amplitudes P1, N1 and P2, peak-to-peak amplitudes P1 N1 and N1P2 of pain related evoked potentials 2. Latencies P1, N1 and P2 of pain-related evoked potentials 3. Intensity estimates of phasic (C02-) pain 4. Intensity estimates of tonic pain
In the first 20 minutes, 40 phasic CO2-stimuli were applied (20 stimuli at a concentration of 70% and 20 at a concentration of 60%, interstimulus interval 30 s). In response to these stimuli, pain-related potentials and subjective intensity estimates were recorded.
CO2-stimuli were mixed in a constantly flowing air stream with controlled temperature (36.5° C.) and humidity (80% relative humidity) presented to the left nostril (stimulus duration 200 ms, interstimulus interval 30 s). […] During intervals between phasic stimuli subjects performed a simple tracking task on a video screen. Using a joystick, they had to keep a small square inside a larger one that randomly moved around.
The EEG was recorded from 5 positions of the international 10/20 system (Cz, C3, C4, Fz and Pz; see FIG. 40) referenced to linked earlobes (A1+A2). Possible eye blink artifacts were monitored from an additional site (Fp2/A1+A2). Stimulus linked EEG segments of 2040 ms duration were sampled with a frequency of 250 Hz (band pass 0.2-30 Hz, pre-stimulus period 512 ms). The recorded analog EEG segments were then converted to digital and filed electronically. The average value for each recording position was separately calculated, discarding all eye blink contaminated records. By this procedure pain-related evoked potentials were obtained in response to the painful CO2 stimuli. Base to peak amplitudes P1, N1 and P2, the peak to peak amplitudes P1 N1 and N1 P2 and the latencies of P1, […] and P2 were measured. Wherever the time of measurement was used in the data analysis, the mid-time of a session was taken. FIG. 40 presents the components of the pain-related evoked potentials.

Data set [2] deals with oxycodone-pump and vehicle-pump implanted rats. In words: Oxycodone tolerance: tail withdrawal dose response in pump-implanted rats, Example 5. The format is in vivo, rat. As for the experimental part:
Animals were randomized and acclimated for one week as described in Section 3.1. Vehicle control pumps contained sterile filtered isotonic saline. Alzet 2ML 1 osmotic mini pumps were loaded with oxycodone solution as described in “Alzet Osmotic Minipumps: Technical Information Manual” from DURECT Corp., Cupertino, Calif. The loaded pumps were primed by placing them in sterile isotonic saline at 37° […] for 3-h before implanting them in the rats. The rats were briefly anesthetized with isoflurane USP (Henry Schein, Inc. Melville, N.Y., U.S.A.) for implantation of 2ML 1 osmotic minipumps that deliver at a rate […]. After induction of anesthesia (as noted by the absence of the righting reflex and foot pinch response). Sterile scissors were used to make a 1.5 cm incision that was expanded under the skin with hemostats in a caudal direction to open the subcutaneous space for the pump. A sterile 2ML 1 pump was then inserted under the skin and moved to the dorsum. The rats were returned to their home cages and monitored until they completely recovered from anesthesia. Pump delivery began at 4-h (DU REGT Corp.) allowing the rats 1-h to recover from the anesthesia. Therefore, time zero began 1-h after implantation of the pumps. The rats were monitored daily for signs of distress, drug toxicity, or problems with the surgical site.
If the value was below 50% then the predicted level of tolerance was greater than 10-fold. The infusion dose that elicited approximately a 50% MPE with the challenge was selected as the 10-fold model of tolerance.
After this, the individual groups (8/group) were challenged with increasing doses of oxycodone for construction of a dose-response curve for calculation of the ED80 value. Potency-ratio determinations were made between the oxycodone-pump and vehicle-pump groups.

The test system of data set [3] is patients with severe chronic pain. In words: Incidence and duration of diarrhea and discontinuations due to diarrhea, Example 1. The settings on record: naloxone 0 mg.
The next data set deals with male Sprague-Dawley rats. In words: 51° C. warm-water tail withdrawal test, i.v. oxycodone in opioid naive rats, Example 5.
Setting [4] is: 0.3 mg/kg oxycodone free-base i.v.

Each structure is given as a SMILES string.

`COc1ccc2c3c1O[C@H]1C(=O)CC[C@@]4(O)[C@@H](C2)N(C)CC[C@]314` [Oxycodone, oxycodone]: the “Magnitude of reduction of amplitude P1N1 at C4 compared to baseline” value in data set [1] (60% CO2, 20 mg oxycodone) stood at 35.3%. The “Amplitude P1N1 of pain-related evoked potentials” value in data set [1] (60% CO2, recording position C4) is “significant compared to placebo”. Besides, the “Latency P1 of pain-related evoked potentials” value in data set [1] (60% CO2, recording position C4) is listed as “significant compared to placebo”; in data set [1] (60% CO2, recording position Pz) it was “significant compared to placebo”; in data set [1] (70% CO2, recording position C3), “significant compared to placebo”; in data set [1] (70% CO2, recording position Cz), “significant compared to placebo”; in data set [1] (70% CO2, recording position Fz), “significant compared to placebo”; in data set [1] (70% CO2, recording position Pz), “significant compared to placebo”. Further, the “Latency P2 of pain-related evoked potentials” value is “significant compared to placebo” in data set [1] (70% CO2, recording position Cz) and “significant compared to placebo” in data set [1] (70% CO2, recording position Pz). Besides, in data set [2] (7-day oxycodone infusion […] vs vehicle pump), the “Rightward shift in the oxycodone dose-response curve (tolerance)” value turned out to be 8.5 fold. In addition, the ED50 (as a rule, the dose that gives a 50% effect, or the effect in half of the subjects) in data set [2] (Rattus norvegicus, iv, i.v. oxycodone, vehicle-pump implanted rats, read-out: ED50 value (antinociception)) amounted to 0.32 mg/kg. For the same compound, in data set [2] (after s.c. oxycodone infusion […] for 7 days), the “% MPE on challenge with […] oxycodone” value is roughly 50 % MPE. The “Discontinuations due to Diarrhea, n/N” value is on record as 0/17 in data set [3] (daily oxycodone 40 mg), 0/17 in data set [3] (daily oxycodone 60 mg) and 0/16 in data set [3] (daily oxycodone 80 mg). Moreover, the “Incidence of Discontinuations due to Diarrhea” value in data set [3] (daily oxycodone 40 mg), in data set [3] (daily oxycodone 60 mg) and in data set [3] (daily oxycodone 80 mg) was “(0.0%)” in each case. Also, the “First test point at which antinociception was present” value with male Sprague-Dawley rats (setting [4]) turned out to be 2.5 min. For the same compound, the “Obvious signs (sedation, motor control, respiration, toxicity)” value in the data set on male Sprague-Dawley rats (setting [4]) was “no obvious signs were noted”. Moreover, the “Time antinociception stayed significantly above baseline latencies” value in the data set on male Sprague-Dawley rats (setting [4]) is on record as 40 min. In addition, the “Peak time of antinociception” value in the data set on male Sprague-Dawley rats (0.3 mg/kg oxycodone free-base i.v., 51° C. tail withdrawal) is 10 min. The “ED80 value (antinociception)” value with male Sprague-Dawley rats (oxycodone free-base i.v., tested at 10-min) is 0.41 mg/kg.

These data come from patent publication US20180008593A1 (Purdue Pharma L.P., priority 2005, published 2018).
